# Results reported in ChEMBL document CHEMBL5506046, “Discovery of LLC355 as an Autophagy-Tethering Compound for the Degradation of Discoidin Domain Receptor 1” (J Med Chem, 2024).
# Molecular target: LC3/Epithelial discoidin domain-containing receptor 1 (Homo sapiens, UniProt Q08345+Q9BXW4+Q9GZQ8+Q9H492)
# Experiment: Autophagosome tethering activity at DDR1 in human NCI-H23 cells assessed as protein degradation at 0.3 uM measured after 24 hrs by immunoblotting analysis relative to control
# Assay type: cell-based
row,Compound,Activity [%]
1,CCc1ccc(C(=O)Nc2cc(CN3CCN(CCOCCOCCOCC(=O)NCCCN(C(=O)c4ccc(C)cc4)[C@@H](c4nc5cc(Cl)ccc5c(=O)n4Cc4ccccc4)C(C)C)CC3)cc(C(F)(F)F)c2)cc1C#Cc1cnc2ccnn2c1,0
2,CCc1ccc(C(=O)Nc2cc(CN3CCN(C(=O)COCCOCCOCCNC(=O)COc4c(Br)cc(/C=C5\C(=O)Nc6ccc(I)cc65)cc4Br)CC3)cc(C(F)(F)F)c2)cc1C#Cc1cnc2ccnn2c1,0
3,CCc1ccc(C(=O)Nc2cc(CN3CCN(C(=O)COc4c(Br)cc(/C=C5\C(=O)Nc6ccc(I)cc65)cc4Br)CC3)cc(C(F)(F)F)c2)cc1C#Cc1cnc2ccnn2c1,4
4,CCc1ccc(C(=O)Nc2cc(CN3CCN(CC(=O)NCCCN(C(=O)c4ccc(C)cc4)[C@@H](c4nc5cc(Cl)ccc5c(=O)n4Cc4ccccc4)C(C)C)CC3)cc(C(F)(F)F)c2)cc1C#Cc1cnc2ccnn2c1,4
5,CCc1ccc(C(=O)Nc2cc(CN3CCN(CCCCCCCC(=O)NCCCN(C(=O)c4ccc(C)cc4)[C@@H](c4nc5cc(Cl)ccc5c(=O)n4Cc4ccccc4)C(C)C)CC3)cc(C(F)(F)F)c2)cc1C#Cc1cnc2ccnn2c1,6
6,CCc1ccc(C(=O)Nc2cc(CN3CCN(CCCCCC(=O)NCCCN(C(=O)c4ccc(C)cc4)[C@@H](c4nc5cc(Cl)ccc5c(=O)n4Cc4ccccc4)C(C)C)CC3)cc(C(F)(F)F)c2)cc1C#Cc1cnc2ccnn2c1,13

# The next lines start with the values.
row,Activity [%],Compound
1,6,CCc1ccc(C(=O)Nc2cc(CN3CCN(CCCC(=O)NCCCN(C(=O)c4ccc(C)cc4)[C@@H](c4nc5cc(Cl)ccc5c(=O)n4Cc4ccccc4)C(C)C)CC3)cc(C(F)(F)F)c2)cc1C#Cc1cnc2ccnn2c1
2,9,CCc1ccc(C(=O)Nc2cc(CN3CCN(C(=O)CCCCCCCNC(=O)COc4c(Br)cc(/C=C5\C(=O)Nc6ccc(I)cc65)cc4Br)CC3)cc(C(F)(F)F)c2)cc1C#Cc1cnc2ccnn2c1
3,0,CCc1ccc(C(=O)Nc2cc(CN3CCN(CCCCCCCCCC(=O)NCCCN(C(=O)c4ccc(C)cc4)[C@@H](c4nc5cc(Cl)ccc5c(=O)n4Cc4ccccc4)C(C)C)CC3)cc(C(F)(F)F)c2)cc1C#Cc1cnc2ccnn2c1
